{"source": "patent US5326774A", "about": "“Pharmaceutical preparation of antihypertensive, antianginal, antiarrhythmic and antiglaucomic action” (priority 1992, dated 1994)", "key": {"[1]": {"test_system": "intraocular tension of intact rabbit eyes", "details": "for Average decrease of intraocular tension OD, M ± m / Intraocular tension level OD, M ± m: 1% solution"}, "β-adrenoceptor": {"test_system": "β-adrenoceptor", "assay": "Specificity of β-adrenoceptor blocking effect: positive inotropism", "from_the_text": "Thus, the compound of the invention relates to specific β-adrenoceptor blocking agents."}, "arterial pressure": {"test_system": "arterial pressure", "assay": "Hypotensive activity in anesthetized cats, i.v.", "format": "in vivo, cat", "details": "for arterial pressure: control 163±8"}, "heart rate": {"test_system": "heart rate", "assay": "Heart rate in anesthetized rats, i.v.", "format": "in vivo, rat", "details": "for heart rate: control 271±7", "experimental": "β-adrenoceptor blocking activity of the active principle of the pharmaceutical preparation of the invention was studied. […]. The test substances were injected to several groups of animals (6-10 individuals each) in the graded doses of 0.001, 0.0025, 0.01, 0.025, and 0.1 mg/kg.\nFrom the dosage of […] it gave rise to the lowering of arterial pressure (from 159±9 in the control to 141±11, 127±10 and 123 ±11 mm Hg in the dosages of 0.01, 0.025 and 0.1 mg/kg). From the dosage of 0.0025 mg/kg the compound of the invention gave rise to the dose-related suppression of the isadrin-initiated depressor effect (by 12,63, 82 and 90% in doses of 0.0025, 0.01, 0.025 and 0.1 mg/kg) and, starting from the dosage of […], a positive chronotropic (by 25, 46 and 78% in doses of 0.01, 0.025 said 0.1 mg/kg, respectively) effect."}, "β2-adrenoceptor": {"test_system": "β2-adrenoceptor", "assay": "Isadrin's depressor effect, i.v., anesthetized cats", "format": "in vivo, cat", "from_the_text": "The influence of intravenous injection of the compound according to the invention as compared with the known drugs on […] positive chronotropic and depressor effects in the anesthetized cats was studied."}, "experimental animals": {"test_system": "experimental animals", "assay": "Chronic toxicity, intragastric", "format": "in vivo"}, "[2]": {"test_system": "mesaton-initiated pressor effect", "assay": "Mesaton-initiated pressor effect in anesthetized rats", "format": "in vivo, rat"}}, "note": "Like-named read-outs stand apart in the source and are kept apart here."}
{"smiles": "Cc1noc(COc2ccccc2OCC(O)CNC(C)(C)C)n1.Cl", "note": "(stereo not drawn) [Compound of the invention, 3-methyl-5-[2-(3-tert.butylamino-2-hydroxypropoxy)phenoxymethyl]-1,2,4-oxadiazole hydrochloride]", "values": [{"measurement": "tolerability for rabbit eyes", "setting": "[1]; 0.5, 1 and 2% solutions", "value": "well-tolerable"}, {"measurement": "Average decrease of intraocular tension OD, M ± m", "setting": "[1]; 1 hour", "value": "1.9 ± 0.3 ram of Hg column"}, {"measurement": "Intraocular tension level OD, M ± m", "setting": "[1]; 1 hour", "value": "17.1 ± 0.3 ram of Hg column"}, {"measurement": "Average decrease of intraocular tension OD, M ± m", "setting": "[1]; 2 hours", "value": "2.6 ± 0.2 ram of Hg column"}, {"measurement": "Intraocular tension level OD, M ± m", "setting": "[1]; 2 hours", "value": "16.5 ± 0.4 ram of Hg column"}, {"measurement": "Average decrease of intraocular tension OD, M ± m", "setting": "[1]; 3 hours", "value": "2.3 ± 0.3 ram of Hg column"}, {"measurement": "Intraocular tension level OD, M ± m", "setting": "[1]; 3 hours", "value": "17.1 ± 0.4 ram of Hg column"}, {"measurement": "Average decrease of intraocular tension OD, M ± m", "setting": "[1]; 4 hours", "value": "2.3 ± 0.3 ram of Hg column"}, {"measurement": "Intraocular tension level OD, M ± m", "setting": "[1]; 4 hours", "value": "17.1 ± 0.2 ram of Hg column"}, {"measurement": "Average decrease of intraocular tension OD, M ± m", "setting": "[1]; 5 hours", "value": "1.5 ± 0.5 ram of Hg column"}, {"measurement": "Intraocular tension level OD, M ± m", "setting": "[1]; 5 hours", "value": "17.6 ± 0.4 ram of Hg column"}, {"measurement": "Average decrease of intraocular tension OD, M ± m", "setting": "[1]; 6 hours", "value": "1.2 ± 0.4 ram of Hg column"}, {"measurement": "Intraocular tension level OD, M ± m", "setting": "[1]; 6 hours", "value": "17.8 ± 0.4 ram of Hg column"}, {"measurement": "Average decrease of intraocular tension OD, M ± m", "setting": "[1]; 24 hours", "value": "0.8 ± 0.5 ram of Hg column"}, {"measurement": "Intraocular tension level OD, M ± m", "setting": "[1]; 24 hours", "value": "18.2 ± 0.7 ram of Hg column"}, {"measurement": "mechanism of lowering of intraocular tension", "setting": "[1]; intact rabbit eyes", "value": "decrease in secretion of surface water (watery moisture)"}, {"measurement": "duration of lowering of intraocular tension", "setting": "[1]; intact rabbit eyes, 0.5, 1 and 2% solutions", "value": "6 to 8", "unit": "h"}, {"measurement": "irritating effect", "setting": "[1]; rabbit, in vivo", "value": "no irritating effect"}, {"measurement": "pupil value", "setting": "[1]; rabbit, in vivo", "value": "do not change considerably the pupil value"}, {"measurement": "effect on positive inotropism of isadrin", "setting": "β-adrenoceptor", "value": "completely arrested"}, {"measurement": "effect on positive inotropism of strophanthin, calcium chloride and theophylline", "setting": "β-adrenoceptor", "value": "did not inhibit but even somewhat enhanced"}, {"measurement": "lower toxicity compared with propranolol, oxprenolol and pindolol", "setting": "albino mice; i.v.", "value": "2-4 times"}, {"measurement": "lower toxicity than propranolol and oxprenolol", "setting": "albino mice; oral", "value": "2-3 times"}, {"measurement": "arterial pressure", "setting": "arterial pressure; 0.02 mg/kg", "value": "147±12", "unit": "mm Hg"}, {"measurement": "arterial pressure", "setting": "arterial pressure; 0.1 mg/kg", "value": "132±5", "unit": "mm Hg"}, {"measurement": "arterial pressure", "setting": "arterial pressure; 0.3 mg/kg", "value": "96±7", "unit": "mm Hg"}, {"measurement": "arterial pressure", "setting": "arterial pressure; 1.0 mg/kg", "value": "90±7", "unit": "mm Hg"}, {"measurement": "arterial pressure", "setting": "arterial pressure; 5.0 mg/kg", "value": "67±7", "unit": "mm Hg"}, {"measurement": "ED20", "setting": "arterial pressure; Felis catus, iv, anesthetized cats, read-out: Dose resulting in lowering of arterial pressure by 20%, ED20", "value": "0.11 ± 0.01", "unit": "mg/kg"}, {"measurement": "minimal effective dose", "setting": "arterial pressure; Felis catus, iv, cats, read-out: dosage from which arterial pressure lowered", "value": 0.02, "unit": "mg/kg"}, {"measurement": "hypotensive effect compared with labetalol", "setting": "arterial pressure; anesthetized normotensive cats, i.v.", "value": "stronger hypotensive effect as compared with labetalol"}, {"measurement": "hypotensive activity, times as high as labetalol", "setting": "arterial pressure; comparison of ED20", "value": 9, "unit": "times"}, {"measurement": "hypotensive activity and duration compared with labetalol", "setting": "arterial pressure; in vivo", "value": "superior to labetalol by hypotensive activity and duration of such effect"}, {"measurement": "duration of hypotensive effect", "setting": "arterial pressure; large dosages", "value": "3 to 4", "unit": "h"}, {"measurement": "duration of hypotensive effect", "setting": "arterial pressure; small dosages", "value": "0.083 to 0.5", "unit": "h"}, {"measurement": "heart rate", "setting": "heart rate; 0.0025 mg/kg i.v.", "value": "249±11", "unit": "beat/min."}, {"measurement": "heart rate", "setting": "heart rate; 0.01 mg/kg i.v.", "value": "238±16", "unit": "beat/min."}, {"measurement": "heart rate", "setting": "heart rate; 0.025 mg/kg i.v.", "value": "204±14", "unit": "beat/min."}, {"measurement": "heart rate", "setting": "heart rate; 0.1 mg/kg i.v.", "value": "181±14", "unit": "beat/min."}, {"measurement": "minimal effective dose", "setting": "heart rate; Rattus norvegicus, iv, read-out: dosage from which heart rate decreased", "value": 0.0025, "unit": "mg/kg"}, {"measurement": "β2-adrenoceptor blocking activity, times as high as labetalol", "setting": "β2-adrenoceptor", "value": 114, "unit": "times"}, {"measurement": "β2-adrenoceptor blocking activity, times as high as oxprenolol", "setting": "β2-adrenoceptor", "value": 43, "unit": "times"}, {"measurement": "β2-adrenoceptor blocking activity, times as high as propranolol", "setting": "β2-adrenoceptor", "value": 2, "unit": "times"}, {"measurement": "biochemical blood values", "setting": "experimental animals; 5 and 30 mg/kg, 6 months", "value": "no effect on biochemical blood values"}, {"measurement": "clinical blood values", "setting": "experimental animals; 5 and 30 mg/kg, 6 months", "value": "did not change the clinical blood values"}, {"measurement": "influence on behavior, appearance, body functions", "setting": "experimental animals; 5 and 30 mg/kg, 6 months", "value": "not exert an essential influence"}, {"measurement": "locally irritant effect", "setting": "experimental animals; 5 and 30 mg/kg, 6 months", "value": "did not exert any locally irritant effect"}, {"measurement": "pathologic alterations in structure of internals", "setting": "experimental animals; 5 and 30 mg/kg, 6 months", "value": "did not lead to pathologic alterations"}, {"measurement": "chronic toxicity tolerance", "setting": "experimental animals; intragastric", "value": "excellent tolerance"}, {"measurement": "effect on mesaton pressor effect", "setting": "[2]; 3 mg/kg i.v.", "value": "did not change"}, {"measurement": "suppression of mesaton pressor effect", "setting": "[2]; 10 mg/kg i.v., average", "value": 76, "unit": "%"}]}
